Measurements reported in PubChem BioAssay AID248 (DTP/NCI, 2004).
“And” between values parts separate entries of the source, which are not always exact repeats. Equal entries are not always repeated. Toxic doses and inconclusive results are not listed. No stated cut-off is given here; in the data, active means T/C of 150% or more; inactive means T/C below 125%.

Tested on: L1210 leukemia ip in BDF1 mice, survival T/C
Assay: NCI In Vivo Anticancer Drug Screen. Data for tumor model L1210 Leukemia (intraperitoneal) in B6D2F1 (BDF1) mice
Conditions: endpoint: mean survival time, higher = longer survival
How it was run: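 Survival endpoint. Drug-treated group vs vehicle group, expressed as T divided by C. Tumor passaged by transplantation.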

[1] = dose: 100.0 mg/kg/injection, schedule: Q01DX009 (ip), vehicle: Klucel (hydroxypropylcellulose) (HPC)
[2] = dose: 200.0 mg/kg/injection, schedule: Q01DX009 (ip), vehicle: Klucel (hydroxypropylcellulose) (HPC)
[3] = dose: 25.0 mg/kg/injection, schedule: Q01DX009 (ip), vehicle: Klucel (hydroxypropylcellulose) (HPC)
[4] = dose: 50.0 mg/kg/injection, schedule: Q01DX009 (ip), vehicle: Klucel (hydroxypropylcellulose) (HPC)
[5] = dose: 400.0 mg/kg/injection, schedule: Q01DX009 (ip), vehicle: Klucel (hydroxypropylcellulose) (HPC)
[6] = dose: 100.0 mg/kg/injection, schedule: Q01DX009 (ip), vehicle: saline with Tween-80
[7] = dose: 200.0 mg/kg/injection, schedule: Q01DX009 (ip), vehicle: saline with Tween-80
[8] = dose: 400.0 mg/kg/injection, schedule: Q01DX009 (ip), vehicle: saline with Tween-80
[9] = dose: 6.25 mg/kg/injection, schedule: Q01DX009 (ip), vehicle: saline
[10] = dose: 12.5 mg/kg/injection, schedule: Q01DX009 (ip), vehicle: saline
[11] = dose: 25.0 mg/kg/injection, schedule: Q01DX009 (ip), vehicle: saline

Measured: T/C

S=C=Nc1cccc(Cl)c1
inactive: dose: 75.0 mg/kg/injection, schedule: Q01DX001 (ip), vehicle: saline 100 % of control | dose: 150.0 mg/kg/injection, schedule: Q01DX001 (ip), vehicle: saline 96 % of control

CCc1ccccc1NC(=O)Nc1nccs1
inactive: [1] 116 % of control | [2] 110 % of control

NC(=O)N1c2ccccc2C=Cc2ccccc21
inactive: dose: 12.5 mg/kg/injection, schedule: Q01DX009 (ip), vehicle: Klucel (hydroxypropylcellulose) (HPC) 93 % of control | [3] 93 % of control | [4] 96 % of control | [1] 89 % of control | dose: 100.0 mg/kg/injection, schedule: Q04DX002 (ip), vehicle: Klucel (hydroxypropylcellulose) (HPC) 103 % of control | [2] 94 % of control | dose: 200.0 mg/kg/injection, schedule: Q04DX002 (ip), vehicle: Klucel (hydroxypropylcellulose) (HPC) 110 % of control | dose: 400.0 mg/kg/injection, schedule: Q04DX002 (ip), vehicle: Klucel (hydroxypropylcellulose) (HPC) 110 % of control

CC(=O)OC1C(C(=O)O)CC(C(=O)O)C1OC(C)=O (configuration not stated)
inactive: dose: 88.0 mg/kg/injection, schedule: Q01DX001 (ip), vehicle: saline 88 % of control | dose: 100.0 mg/kg/injection, schedule: Q01DX001 (ip), vehicle: saline 108 % of control | dose: 133.0 mg/kg/injection, schedule: Q01DX001 (ip), vehicle: saline 98 % of control | dose: 200.0 mg/kg/injection, schedule: Q01DX001 (ip), vehicle: saline 98 % of control | dose: 300.0 mg/kg/injection, schedule: Q01DX001 (ip), vehicle: saline 98 % of control | dose: 400.0 mg/kg/injection, schedule: Q01DX001 (ip), vehicle: saline 106 % of control

CC(C)c1ccc(NC(=O)c2ccc(Cl)c(Cl)c2)cc1
inactive: [1] 98 % of control | [2] 91 % of control | [5] 93 % of control

CCc1cc2c(cc1C(=O)/C=C\c1ccco1)C(C)(C)CCC2(C)C
inactive: [6] 103 % of control | dose: 100.0 mg/kg/injection, schedule: Q04DX002 (ip), vehicle: saline with Tween-80 96 % of control | [7] 95 % of control | dose: 200.0 mg/kg/injection, schedule: Q04DX002 (ip), vehicle: saline with Tween-80 93 % of control | [8] 106 % of control | dose: 400.0 mg/kg/injection, schedule: Q04DX002 (ip), vehicle: saline with Tween-80 93 % of control

COc1ccc(C)cc1NC(=S)NC(=O)C(C)Oc1ccccc1 (configuration not stated)
inactive: [3] 95 % of control | [4] 93 % of control | [1] 101 % of control and 91 % of control | dose: 100.0 mg/kg/injection, schedule: Q04DX003 (ip), vehicle: Klucel (hydroxypropylcellulose) (HPC) 97 % of control | dose: 200.0 mg/kg/injection, schedule: Q04DX003 (ip), vehicle: Klucel (hydroxypropylcellulose) (HPC) 103 % of control | dose: 400.0 mg/kg/injection, schedule: Q04DX003 (ip), vehicle: Klucel (hydroxypropylcellulose) (HPC) 97 % of control

C=CC[Se]c1ncnc2c1c(C#N)cn2C1OC(CO)C(O)C1O (configuration not stated)
inactive: [9] 103 % of control | [10] 107 % of control | [11] 92 % of control

CCCCCCCCCCCCCCCCc1ccc(O)cc1O
inactive: dose: 12.5 mg/kg/injection, schedule: Q04DX003 (ip), vehicle: Klucel (hydroxypropylcellulose) (HPC) 103 % of control | dose: 25.0 mg/kg/injection, schedule: Q01DX009 (ip), vehicle: saline with Tween-80 100 % of control | dose: 25.0 mg/kg/injection, schedule: Q04DX003 (ip), vehicle: Klucel (hydroxypropylcellulose) (HPC) 95 % of control | dose: 50.0 mg/kg/injection, schedule: Q01DX009 (ip), vehicle: saline with Tween-80 105 % of control | dose: 50.0 mg/kg/injection, schedule: Q04DX003 (ip), vehicle: Klucel (hydroxypropylcellulose) (HPC) 95 % of control | [6] 95 % of control | dose: 100.0 mg/kg/injection, schedule: Q04DX003 (ip), vehicle: saline with Tween-80 94 % of control

O=c1[nH]c2nccnc2[nH]1
inactive: dose: 25.0 mg/kg/injection, schedule: Q01DX009 (ip), vehicle: water 91 % of control | dose: 50.0 mg/kg/injection, schedule: Q01DX009 (ip), vehicle: water 107 % of control | dose: 200.0 mg/kg/injection, schedule: Q01DX009 (ip), vehicle: water 96 % of control

CCN(CC)P(=O)(OCC(C)C(C)=O)N(CCCl)CCCl (configuration not stated)
inactive: dose: 100.0 mg/kg/injection, schedule: Q04DX003 (ip), vehicle: DMSO 115 % of control | dose: 200.0 mg/kg/injection, schedule: Q04DX003 (ip), vehicle: DMSO 113 % of control | dose: 400.0 mg/kg/injection, schedule: Q04DX003 (ip), vehicle: DMSO 112 % of control

CN(C)c1nc2c(N)ncnc2n1C1OC(CO)C(O)C1O (configuration not stated)
inactive: [9] 100 % of control | dose: 12.5 mg/kg/injection, schedule: Q01DX005 (ip), vehicle: saline 95 % of control | [10] 96 % of control | dose: 25.0 mg/kg/injection, schedule: Q01DX005 (ip), vehicle: saline 101 % of control | [11] 110 % of control | dose: 50.0 mg/kg/injection, schedule: Q01DX005 (ip), vehicle: saline 108 % of control

O=C1OC(=O)c2ccc3c4ccc5c6c(ccc(c7ccc1c2c73)c64)C(=O)OC5=O
inactive: dose: 100.0 mg/kg/injection, schedule: Q01DX001 (ip), vehicle: Klucel (hydroxypropylcellulose) (HPC) 97 % of control | dose: 200.0 mg/kg/injection, schedule: Q01DX001 (ip), vehicle: Klucel (hydroxypropylcellulose) (HPC) 97 % of control | dose: 400.0 mg/kg/injection, schedule: Q01DX001 (ip), vehicle: Klucel (hydroxypropylcellulose) (HPC) 95 % of control

NC1CCCC[N-]1.NC1CCCC[N-]1.NC1CCCC[N-]1.[Cl][Cr]([Cl])[Cl] (configuration not stated)
inactive: dose: 18.75 mg/kg/injection, schedule: Q04DX003 (ip), vehicle: saline 94 % of control | dose: 37.5 mg/kg/injection, schedule: Q04DX003 (ip), vehicle: saline 92 % of control | dose: 75.0 mg/kg/injection, schedule: Q04DX003 (ip), vehicle: saline 89 % of control

O=C1c2cccc3cccc(c23)C(=O)N1CC1CCCO1 (configuration not stated)
inactive: [1] 94 % of control | [2] 94 % of control | [5] 87 % of control

CCCCOc1ccc(O)cc1
inactive: dose: 100.0 mg/kg/injection, schedule: Q04DX003 (ip), vehicle: other 117 % of control | dose: 200.0 mg/kg/injection, schedule: Q04DX003 (ip), vehicle: other 100 % of control | dose: 400.0 mg/kg/injection, schedule: Q04DX003 (ip), vehicle: other 108 % of control

C[C@]12CC[C@@H]3c4ccc(O)cc4CC[C@H]3[C@@H]1C[C@H](O)C2
inactive: dose: 100.0 mg/kg/injection, schedule: Q01DX001 (sc), vehicle: steriod suspending solution 98 % of control | dose: 100.0 mg/kg/injection, schedule: Q04DX003 (sc), vehicle: steriod suspending solution 96 % of control | dose: 200.0 mg/kg/injection, schedule: Q01DX001 (sc), vehicle: steriod suspending solution 102 % of control | dose: 200.0 mg/kg/injection, schedule: Q04DX003 (sc), vehicle: steriod suspending solution 104 % of control | dose: 400.0 mg/kg/injection, schedule: Q01DX001 (sc), vehicle: steriod suspending solution 105 % of control | dose: 400.0 mg/kg/injection, schedule: Q04DX003 (sc), vehicle: steriod suspending solution 94 % of control

CC1C=CCP1(C)=O (configuration not stated)
inactive: [6] 91 % of control | [7] 96 % of control | [8] 94 % of control

O=[N+]([O-])c1ccc(S(=O)C2CCCCC2Cl)c([N+](=O)[O-])c1 (configuration not stated)
inactive: [1] 111 % of control
